Literature values as cited in US8318954B2, “Cleavable carnitine compound” (Nou Life Sciences, Inc., priority 2006, dated 2012).
Entries after “also recorded” stand apart in the source; their conditions may differ. Read-outs that look alike come from different tables or passages of the source.

Columns and labels:
diabetic rats [1] = conditions: diabetic rat, 30 days after sciatic nerve cutting; diet: 200 mg/kg acetyl L-carnitine, 200 mg/kg carnitine mixture, 50 mg/kg α-lipoic acid daily; cited from earlier work
[2] = system: rats with unilateral sciatic nerve division; conditions: 50 mg/kg/day i.p. for 6 weeks; compared to no treatment; cited from earlier work
chinchilla laniger = conditions: cited from earlier work
Wobbler mice = conditions: twenty days oral, acetyl L-carnitine 200 mg/kg, carnitine mixture 200 mg/kg, α-lipoic acid 50 mg/kg; cited from earlier work
[3] = system: rats with unilateral sciatic nerve division; conditions: cited from earlier work
[4] = system: patients having diabetic neuropathy; conditions: cited from earlier work
mice and rats = conditions: cited from earlier work
[5] = system: subcutaneous adipocytes in rats; conditions: long-term administration, rat; cited from earlier work
diabetic rats [6] = conditions: streptozocin diabetic rats, sciatic nerve; amount administered not specified; cited from earlier work
[7] = three weeks after noise exposure

In the case of CC(=O)O[C@H](CC(=O)[O-])C[N+](C)(C)C [Acetyl-L-carnitine], the “Density of tibial nerve degenerate elements” value (diabetic rats [1]) is listed as 0.16 ± 0.02 per 100 nm^2, the “Number of tibial nerve degenerate elements” value (diabetic rats [1]) is listed as 560 ± 61 and the “immunostaining for Schwann cells, percentage area” value [2] is listed as 86 % increase. The “immunostaining for Schwann cells, total area” value [2] was 111 % increase, the “immunostaining for nerve fibres, percentage area” value [2] was 229 % increase and the “immunostaining for nerve fibres, total area” value [2] was 264 % increase. For the same compound, the “regeneration into the distal stump, percentage area” value [2] was 3,034 % increase, the “regeneration into the distal stump, total area” value [2] was 2,242 % increase and the “outer hair cell loss” value (chinchilla laniger; 4- to 10-kHz region) was less than 10%. The “inner and outer hair cell loss” value (chinchilla laniger; in vivo) was “reduced”, the “threshold shift at 2 to 4 kHz” value (chinchilla laniger; [7]) was “no threshold shift” and the “threshold shifts at 6 to 8 kHz” value (chinchilla laniger; [7]) was less than 10 dB. The “% increase in running time” value (Wobbler mice) was 35 ± 3.2%, the “number of TUNEL-positive neurons” value ([3]; 2 weeks after axotomy, high-dose 50 mg/kg/day parenteral, 50 mg/kg/day) was 3 /group and the “number of TUNEL-positive neurons” value ([3]; 2 weeks after axotomy, high-dose 50 mg/kg/day parenteral, listed as ALCAR, 50 mg/kg/day) was “significantly reduced”. The neuron loss ([3]; 2 weeks after axotomy, high-dose 50 mg/kg/day, 50 mg/kg/day) was 2%, the neuron loss ([3]; 2 weeks after axotomy, high-dose 50 mg/kg/day, listed as ALCAR, 50 mg/kg/day) was “significantly reduced” and the “number of TUNEL-positive neurons” value ([3]; 2 weeks after axotomy, low-dose 10 mg/kg/day parenteral) was 6 /group. The neuron loss ([3]; 2 weeks after axotomy, low-dose 10 mg/kg/day) was 0%, the neuron loss ([3]; two months after axotomy, high-dose 50 mg/kg/day) was −4% and the tolerability ([4]; 1000 mg/day i.m. 10 days, then 2000 mg/day oral 355 days, 12 month period) was “well tolerated”. For the same compound, the “nerve conduction velocity NCV” value ([4]; at 6- and 12 months, compared to placebo) was “statistically significant improvement”, the Amplitude ([4]; at 12 months, patients with impaired electrophysiological parameters at baseline, compared to placebo) was “statistically significant improvement” and the “pain (visual analogue scale)” value ([4]; compared to placebo) was “significant reduction; also recorded: statistically significant improvement”. The “dose that can be parenterally administered” value (mice and rats; parenteral, mice and rats) was “up to 250 mg/kg”, the “tolerability on prolonged administration” value (mice and rats; via the diet, 30 consecutive days, 200 mg/kg acetyl L-carnitine together with 100 mg/kg alpha lipoic acid) was “well tolerated” and the “size of subcutaneous adipocytes in aging skin” value [5] was “blocks progressive increase in size”. For the same compound, the NMCV (diabetic rats [6]) was 34.5 ± 2.1 m/sec.
